Measured values taken from patent US20060276478A1, “Pyrazolopyrimidines” (priority 2003, published 2006).
Counter-ions that a name gives are not always drawn.

Assay: logP determination by HPLC (EEC directive 79/831 Annex V. A8)
Type: physicochemical
Details: HPLC (gradient, acetonitrile/0.1% aqueous phosphoric acid), gradient method
Protocol: logP values are determined in accordance with EEC directive 79/831 Annex V. A8 by HPLC (gradient method, acetonitrile/0.1% aqueous phosphoric acid). Preparation of Starting Materials

| Compound | chromatographic logP |
| --- | --- |
| CC(Nc1c(-c2ccc(F)cc2Cl)c(Cl)nc2c(C(=N)N)cnn12)C(C)(C)C (single isomer, unassigned) [Example 3, 3-iminoamide-5-chloro-6-(2-chloro-4-fluorophenyl)-7-(3,3-dimethylbut-2-ylamino)pyrazolo[1,5-a]pyrimidine hydrochloride] | 2.72 |
| CC(Nc1c(-c2c(F)cccc2Cl)c(Cl)nc2c(C(N)=O)cnn12)C(C)(C)C (stereo not shown) [Example 1, 3-amido-5-chloro-6-(2-chloro-6-fluorophenyl)-7-(3,3-dimethylbut-2-ylamino)pyrazolo[1,5-a]pyrimidine] | 3.62 |
| CC(Nc1c(-c2ccc(F)cc2Cl)c(Cl)nc2c(C(N)=NO)cnn12)C(C)(C)C (stereo not shown) [Example 2, 3-hydroximinoamido-5-chloro-6-(2-chloro-4-fluorophenyl)-7-(3,3-dimethylbut-2-ylamino)pyrazolo[1,5-a]pyrimidine] | 2.55 |
| CC(Nc1c(-c2c(F)cccc2Cl)c(Cl)nc2c(C#N)cnn12)C(C)(C)C (stereo not shown) [Example 36, 3-cyano-5-chloro-6-(2-chloro-6-fluorophenyl)-7-(3,3-dimethylbut-2-ylamino)pyrazolo[1,5-a]pyrimidine] | 4.59 |
| CC(Nc1c(-c2ccc(F)cc2Cl)c(Cl)nc2c(C#N)cnn12)C(C)(C)C (stereo not shown) [Example 37] | 4.78 |
| N#Cc1cnn2c(O)c(-c3c(F)cccc3Cl)c(O)nc12 [Example 39] | 0.19 |
| N#Cc1cnn2c(Cl)c(-c3ccc(F)cc3Cl)c(Cl)nc12 [Example 40, 3-cyano-5,7-dichloro-6-(2-chloro-4-fluorophenyl)pyrazolo[1,5-a]pyrimidine] | 3.49 |
| N#Cc1cnn2c(Cl)c(-c3c(F)cccc3Cl)c(Cl)nc12 [Example 41] | 3.31 |

Same assay, conditions: gradient method, acetonitrile/0.1% aqueous phosphoric acid

| Compound | chromatographic logP |
| --- | --- |
| CC(Nc1c(-c2ccc(F)cc2Cl)c(Cl)nc2c(C=NNc3ccc([N+](=O)[O-])cc3[N+](=O)[O-])cnn12)C(C)(C)C (stereo not shown) [Example 5, 3-(2,4-dinitriophenylhydraziminomethyl)-5-chloro-6-(2-chloro-4-fluorophenyl)-7-(3,3-dimethylbut-2-ylamino)pyrazolo[1,5-a]pyrimidine] | 6.28 |

Same assay, conditions: gradient method, acetonitrile/0.1% aqueous phosphoric acid, hydrochloride

| Compound | logP |
| --- | --- |
| CC(Nc1c(-c2ccc(F)cc2Cl)c(Cl)nc2c(C(=N)N)cnn12)C(C)(C)C (single isomer, unassigned) [Example 4, hydrochloride] | 2.58 |
